Test system: 855422-203-R-J1-PDC complex spheroid growth
Test: Anticancer human tumor 855422-203-R-J1-PDC patient-derived bladder carcinoma cell line growth inhibition [AhR]
Conditions: for IC50: curve of first compound; for viability, T/C: stronger effect = lower value
Excerpt: Multicellular complex tumor spheroid response to aryl hydrocarbon receptor antagonists in combination with a variety of drugs and investigational agents in selected tumor cell lines
The current study was undertaken to assess response to aryl hydrocarbon receptor antagonists in combination with standard-of-care drugs and investigational agents in solid tumor complex spheroid models. Complex spheroids include a stromal component modeled by human endothelial cells (HUVEC) and fibroblasts modeled by human mesenchymal stem cells (MSCs). The concentration ranges selected for each drug and investigational agent were based upon clinically achievable concentrations if the clinical Cmax of the agent was known.
Compounds. The drugs and investigational agents: BAY 2416964 (NSC825713), GNF351 (NSC835774), CH-223191 (NSC835775), CPI-455 (NSC825282), aza-TdCyd (NSC777586), decitabine (NSC127716), belinostat (NSC758774), entinostat (NSC756642), pevonedistat (NSC761192), tazemetostat (NSC777109), talazoparib (NSC765396), olaparib (NSC753686), selinexor (NSC780203), nedisertib (M3814, NSC802822), bortezomib (NSC756655), venetoclax (NSC766270), doxorubicin (NSC123127), elimusertib (BAY189344, NSC800525), ceralasertib (AZD6738, NSC777638), TAK-243 (NSC785004), alisertib (NSC759677), etoposide (NSC141540), topotecan (NSC609699), eribulin (NSC707389), gemcitabine (NSC613327), carboplatin (NSC241240), cisplatin (NSC119875), and SN-38 (NSC673596) were obtained from the National Cancer Institute (NCI) Developmental Therapeutics Program Chemical Repository (32). The FDA-approved anticancer drug set is available from the Developmental Therapeutics Program at https://dtp.cancer.gov/organization/dscb/obtaining/available plates.htm. […] The stock solutions were prepared in dimethyl sulfoxide (DMSO, Sigma-Aldrich, St. Louis, MO, cat. D2650), except for the platinum compounds which were prepared in saline (Quality Biological, Gaithersburg, MD, cat. 114-055-101), at 800-fold the tested concentration and stored at -70 degrees C prior to their use. All drugs and investigational agents were tested over a range starting from a high concentration at or near the clinical Cmax and decreasing in half-log increments. If the clinical Cmax for an agent had not been determined, the highest concentration tested was 10 microM (Table 1).
Cell Culture. All cells were maintained in an incubator at 37 degrees C and 5% CO2 with 95% humidity. The PDC lines were cultured according to standard operating procedures established by the NCI PDMR (https://pdmr.cancer.gov). Briefly, all PDCs were thawed and cultured in Matrigel-coated flasks prepared with a working solution of 1X Ham's F-12 nutrient mix, without supplementation (Invitrogen, Waltham, MA, cat. 11765054), 100 U/mL penicillin-streptomycin (Invitrogen, cat. 15140122), and 2.5% Matrigel (Corning Inc., Corning, NY, cat. 354248) for the first three passages. All PDCs were cultured in complete DMEM/F-12 media containing advanced DMEM/F-12 (Invitrogen, cat. 12634028), 4.9% defined fetal bovine serum, heat inactivated (HyClone Laboratories Inc., Logan, UT, cat. SH30070.03HI), 389 ng/mL hydrocortisone (Sigma-Aldrich, cat. H4001), 9.7 ng/mL human EGF recombinant protein (Invitrogen, cat. PHG0313), 23.4 microg/mL adenine (Sigma-Aldrich, cat. A2786), 97.3 U/mL penicillin-streptomycin (Invitrogen, cat. 15140122), 1.9 mM L-glutamine (Invitrogen, cat. 25030081), and 9.7 microM Y-27632 dihydrochloride (Tocris Bioscience, Bristol, United Kingdom, cat. 1254). The PDCs were cultured in complete DMEM/F12 media without 10 microM Y-27632 dihydrochloride for at least two passages prior to the screen. The established cell lines NCI-H1341 and […] were cultured in DMEM/F-12, HEPES (Invitrogen, cat. 11330032), 5% defined fetal bovine serum (HyClone Laboratories Inc., cat. SH30070.03), ITS premix universal culture supplement [insulin (5 microg/mL), transferrin (5 microg/mL), and selenious acid (5 ng/mL)] […]

[1] = second compound 0.1 µM, first compound 0.000949 µM
[2] = second compound 0.1 µM, first compound 0.003 µM
[3] = second compound 0.1 µM, first compound 0.00949 µM
[4] = second compound 0.1 µM, first compound 0.03 µM
[5] = second compound 0.1 µM, first compound 0.0949 µM
[6] = second compound 0.1 µM, first compound 0.3 µM
[7] = second compound 0.316 µM, first compound 0.000949 µM
[8] = second compound 0.316 µM, first compound 0.003 µM
[9] = second compound 0.316 µM, first compound 0.00949 µM
[10] = second compound 0.316 µM, first compound 0.03 µM
[11] = second compound 0.316 µM, first compound 0.0949 µM
[12] = second compound 0.316 µM, first compound 0.3 µM
[13] = second compound 1 µM, first compound 0.000949 µM
[14] = second compound 1 µM, first compound 0.003 µM
[15] = second compound 1 µM, first compound 0.00949 µM
[16] = second compound 1 µM, first compound 0.03 µM
[17] = second compound 1 µM, first compound 0.0949 µM
[18] = second compound 1 µM, first compound 0.3 µM
[19] = second compound 3.16 µM, first compound 0.000949 µM
[20] = second compound 3.16 µM, first compound 0.003 µM
[21] = second compound 3.16 µM, first compound 0.00949 µM
[22] = second compound 3.16 µM, first compound 0.03 µM
[23] = second compound 3.16 µM, first compound 0.0949 µM
[24] = second compound 3.16 µM, first compound 0.3 µM
[25] = second compound 10 µM, first compound 0.000949 µM
[26] = second compound 10 µM, first compound 0.003 µM
[27] = second compound 10 µM, first compound 0.00949 µM
[28] = second compound 10 µM, first compound 0.03 µM
[29] = second compound 10 µM, first compound 0.0949 µM
[30] = second compound 10 µM, first compound 0.3 µM
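Note: spheroids exposed to agents for seven days before readout.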
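Throughout, for viability, T/C: percent of DMSO vehicle control luminescence viability.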

COc1cccc2c1C(=O)c1c(O)c3c(c(O)c1C2=O)CC(O)(C(=O)CO)CC3OC1CC(N)C(O)C(C)O1 (stereo not given) + Cc1cncc(-c2nc(NCCc3c[nH]c4ccccc34)c3ncn(C(C)C)c3n2)c1
IC50 (second compound 0.1 µM): < 0.0316 µM
IC50 (second compound 0.316 µM): < 0.0316 µM
IC50 (second compound 1 µM): < 0.0316 µM
IC50 (second compound 3.16 µM): < 0.0316 µM
IC50 (second compound 10 µM): < 0.0316 µM
viability, T/C (second compound 0.1 µM, first compound 0.0316 µM): 19.5%
viability, T/C (second compound 0.1 µM, first compound 0.1 µM): 15.4%
viability, T/C (second compound 0.1 µM, first compound 0.316 µM): 2.05%
viability, T/C (second compound 0.1 µM, first compound 1 µM): 0.85%
viability, T/C (second compound 0.1 µM, first compound 3.16 µM): 1.02%
viability, T/C (second compound 0.1 µM, first compound 10 µM): 1.75%
viability, T/C (second compound 0.316 µM, first compound 0.0316 µM): 22.4%
viability, T/C (second compound 0.316 µM, first compound 0.1 µM): 13.7%
viability, T/C (second compound 0.316 µM, first compound 0.316 µM): 1.65%
viability, T/C (second compound 0.316 µM, first compound 1 µM): 0.73%
viability, T/C (second compound 0.316 µM, first compound 3.16 µM): 0.93%
viability, T/C (second compound 0.316 µM, first compound 10 µM): 1.37%
viability, T/C (second compound 1 µM, first compound 0.0316 µM): 17.8%
viability, T/C (second compound 1 µM, first compound 0.1 µM): 10.3%
viability, T/C (second compound 1 µM, first compound 0.316 µM): 4.93%
viability, T/C (second compound 1 µM, first compound 1 µM): 4.6%
viability, T/C (second compound 1 µM, first compound 3.16 µM): 0.74%
viability, T/C (second compound 1 µM, first compound 10 µM): 1.14%
viability, T/C (second compound 3.16 µM, first compound 0.0316 µM): 17.9%
viability, T/C (second compound 3.16 µM, first compound 0.1 µM): 7.51%
viability, T/C (second compound 3.16 µM, first compound 0.316 µM): 2.13%
viability, T/C (second compound 3.16 µM, first compound 1 µM): 1.95%
viability, T/C (second compound 3.16 µM, first compound 3.16 µM): 1.19%
viability, T/C (second compound 3.16 µM, first compound 10 µM): 0.94%
viability, T/C (second compound 10 µM, first compound 0.0316 µM): 4.02%
viability, T/C (second compound 10 µM, first compound 0.1 µM): 1.33%
viability, T/C (second compound 10 µM, first compound 0.316 µM): 0.55%
viability, T/C (second compound 10 µM, first compound 1 µM): 0.22%
viability, T/C (second compound 10 µM, first compound 3.16 µM): 0.28%
viability, T/C (second compound 10 µM, first compound 10 µM): 0.3%

Nc1ncn(C2CC(O)C(CO)S2)c(=O)n1 (stereo not given) + Cc1ccccc1N=Nc1ccc(NC(=O)c2ccnn2C)c(C)c1
IC50 (second compound 0.1 µM): > 0.3 µM
IC50 (second compound 0.316 µM): > 0.3 µM
IC50 (second compound 1 µM): > 0.3 µM
IC50 (second compound 3.16 µM): > 0.3 µM
IC50 (second compound 10 µM): > 0.3 µM
viability, T/C [1]: 99.8%
viability, T/C [2]: 94.9%
viability, T/C [3]: 98%
viability, T/C [4]: 95.9%
viability, T/C [5]: 97%
viability, T/C [6]: 93.8%
viability, T/C [7]: 104%
viability, T/C [8]: 97.7%
viability, T/C [9]: 97.7%
viability, T/C [10]: 99.8%
viability, T/C [11]: 95.4%
viability, T/C [12]: 101%
viability, T/C [13]: 100%
viability, T/C [14]: 100%
viability, T/C [15]: 92.5%
viability, T/C [16]: 98.2%
viability, T/C [17]: 98%
viability, T/C [18]: 92.6%
viability, T/C [19]: 98.9%
viability, T/C [20]: 87.2%
viability, T/C [21]: 90.2%
viability, T/C [22]: 86.3%
viability, T/C [23]: 93.7%
viability, T/C [24]: 84.5%
viability, T/C [25]: 87.6%
viability, T/C [26]: 80.8%
viability, T/C [27]: 82%
viability, T/C [28]: 90.3%
viability, T/C [29]: 91.4%
viability, T/C [30]: 78%

CCc1c2c(nc3ccc(O)cc13)-c1cc3c(c(=O)n1C2)COC(=O)[C@]3(O)CC + Cc1cncc(-c2nc(NCCc3c[nH]c4ccccc34)c3ncn(C(C)C)c3n2)c1
IC50 (second compound 0.1 µM): 0.0029 µM
IC50 (second compound 0.316 µM): 0.00198 µM
IC50 (second compound 1 µM): 0.00181 µM
IC50 (second compound 3.16 µM): 0.00109 µM
IC50 (second compound 10 µM): < 0.000949 µM
viability, T/C [1]: 99.6%
viability, T/C [2]: 48.6%
viability, T/C [3]: 12.1%
viability, T/C [4]: 9.21%
viability, T/C [5]: 6.44%
viability, T/C [6]: 3.75%
viability, T/C [7]: 76.5%
viability, T/C [8]: 35%
viability, T/C [9]: 9.9%
viability, T/C [10]: 10%
viability, T/C [11]: 6.31%
viability, T/C [12]: 4.22%
viability, T/C [13]: 72.3%
viability, T/C [14]: 32.6%
viability, T/C [15]: 11.4%
viability, T/C [16]: 9.74%
viability, T/C [17]: 6.96%
viability, T/C [18]: 4.13%
viability, T/C [19]: 54.2%
viability, T/C [20]: 22.2%
viability, T/C [21]: 10.7%
viability, T/C [22]: 4.55%
viability, T/C [23]: 5.79%
viability, T/C [24]: 3.2%
viability, T/C [25]: 3.26%
viability, T/C [26]: 2.2%
viability, T/C [27]: 3.05%
viability, T/C [28]: 0.55%
viability, T/C [29]: 1.43%
viability, T/C [30]: 1.83%

— PubChem BioAssay AID1919005 (Molecular Pharmacology Branch, DTP, NCI, 2023)
